The target in one assay is Glutamate receptor 2 (Homo sapiens, UniProt P42262). The assay is described as follows: biochemical.
In assay [1] the target is Glutamate receptor 1 (Homo sapiens, UniProt P42261). In words: biochemical.
Another assay deals with Glutamate receptor 4 (Homo sapiens, UniProt P48058). The assay is described as follows: biochemical.
Assay [2] addresses Glutamate receptor 1 (Rattus norvegicus, UniProt P19490). The assay is described as follows: Potency on Ionotropic glutamate receptor AMPA in hippocampal neurons. The format is functional, tissue-based, Hippocampus.
The target of assay [3] is Glutamate receptor ionotropic, kainate 3 (Rattus norvegicus, UniProt P42264). In words: Potency on Ionotropic glutamate receptor kainate in dorsal root ganglion cells. The format is functional, cell-based.

For orientation: Ki means a measure of affinity in units of concentration, obtained from inhibition or displacement. Higher therefore signals lower affinity. A word on the EC50: it is the concentration at which the effect is half-maximal. Low readings indicate greater potency, high ones weaker potency.

Sequence of Glutamate receptor 1 (Homo sapiens, UniProt P42261) (P42261 whole entry): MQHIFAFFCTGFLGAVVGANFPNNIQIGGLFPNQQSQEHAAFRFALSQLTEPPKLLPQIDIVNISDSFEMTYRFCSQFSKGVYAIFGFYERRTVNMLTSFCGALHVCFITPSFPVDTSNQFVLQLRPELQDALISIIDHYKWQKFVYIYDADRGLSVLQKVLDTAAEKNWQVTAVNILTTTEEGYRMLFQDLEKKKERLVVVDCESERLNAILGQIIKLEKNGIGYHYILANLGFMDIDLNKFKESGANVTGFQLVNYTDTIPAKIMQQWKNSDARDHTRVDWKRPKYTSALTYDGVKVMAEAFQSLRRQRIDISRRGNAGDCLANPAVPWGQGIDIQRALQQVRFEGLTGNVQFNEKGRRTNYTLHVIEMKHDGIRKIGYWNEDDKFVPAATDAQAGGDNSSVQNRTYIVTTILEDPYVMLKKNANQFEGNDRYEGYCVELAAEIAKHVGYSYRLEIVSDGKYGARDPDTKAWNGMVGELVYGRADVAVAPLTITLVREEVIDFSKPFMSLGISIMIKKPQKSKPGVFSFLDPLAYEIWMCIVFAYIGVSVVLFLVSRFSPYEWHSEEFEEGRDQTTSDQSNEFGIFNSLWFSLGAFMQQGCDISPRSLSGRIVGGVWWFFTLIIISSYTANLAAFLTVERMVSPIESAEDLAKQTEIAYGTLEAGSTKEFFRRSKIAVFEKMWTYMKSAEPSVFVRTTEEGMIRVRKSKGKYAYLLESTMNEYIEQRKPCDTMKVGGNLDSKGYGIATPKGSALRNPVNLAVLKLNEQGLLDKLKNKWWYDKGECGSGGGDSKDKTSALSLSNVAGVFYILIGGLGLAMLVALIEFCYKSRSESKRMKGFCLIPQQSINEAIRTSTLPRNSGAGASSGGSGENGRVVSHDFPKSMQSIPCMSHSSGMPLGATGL
Sequence of Glutamate receptor 4 (P48058 whole entry): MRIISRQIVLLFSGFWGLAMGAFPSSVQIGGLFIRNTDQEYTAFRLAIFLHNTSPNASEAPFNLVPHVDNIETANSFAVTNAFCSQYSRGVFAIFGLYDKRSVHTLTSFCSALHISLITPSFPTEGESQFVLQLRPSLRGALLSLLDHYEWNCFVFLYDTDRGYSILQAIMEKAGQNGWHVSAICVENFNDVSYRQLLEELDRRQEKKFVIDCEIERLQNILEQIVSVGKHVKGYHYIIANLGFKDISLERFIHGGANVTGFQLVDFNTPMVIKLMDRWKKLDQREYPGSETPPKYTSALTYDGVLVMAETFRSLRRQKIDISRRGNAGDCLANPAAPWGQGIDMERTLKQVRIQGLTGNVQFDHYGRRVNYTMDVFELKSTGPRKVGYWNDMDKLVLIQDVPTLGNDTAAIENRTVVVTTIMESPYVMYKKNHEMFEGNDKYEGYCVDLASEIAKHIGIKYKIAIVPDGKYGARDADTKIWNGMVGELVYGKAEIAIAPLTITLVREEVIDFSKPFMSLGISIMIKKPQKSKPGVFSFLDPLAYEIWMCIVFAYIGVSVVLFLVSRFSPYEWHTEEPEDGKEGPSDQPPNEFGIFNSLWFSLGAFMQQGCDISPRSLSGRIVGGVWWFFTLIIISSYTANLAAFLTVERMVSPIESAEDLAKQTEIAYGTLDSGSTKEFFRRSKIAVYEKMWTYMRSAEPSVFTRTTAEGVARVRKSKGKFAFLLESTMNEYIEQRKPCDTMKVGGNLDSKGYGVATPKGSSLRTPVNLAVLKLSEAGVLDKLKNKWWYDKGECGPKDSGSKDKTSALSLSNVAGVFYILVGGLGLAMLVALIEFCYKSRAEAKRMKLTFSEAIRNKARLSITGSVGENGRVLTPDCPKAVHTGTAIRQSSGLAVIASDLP
Sequence of Glutamate receptor 2 (P42262 whole entry): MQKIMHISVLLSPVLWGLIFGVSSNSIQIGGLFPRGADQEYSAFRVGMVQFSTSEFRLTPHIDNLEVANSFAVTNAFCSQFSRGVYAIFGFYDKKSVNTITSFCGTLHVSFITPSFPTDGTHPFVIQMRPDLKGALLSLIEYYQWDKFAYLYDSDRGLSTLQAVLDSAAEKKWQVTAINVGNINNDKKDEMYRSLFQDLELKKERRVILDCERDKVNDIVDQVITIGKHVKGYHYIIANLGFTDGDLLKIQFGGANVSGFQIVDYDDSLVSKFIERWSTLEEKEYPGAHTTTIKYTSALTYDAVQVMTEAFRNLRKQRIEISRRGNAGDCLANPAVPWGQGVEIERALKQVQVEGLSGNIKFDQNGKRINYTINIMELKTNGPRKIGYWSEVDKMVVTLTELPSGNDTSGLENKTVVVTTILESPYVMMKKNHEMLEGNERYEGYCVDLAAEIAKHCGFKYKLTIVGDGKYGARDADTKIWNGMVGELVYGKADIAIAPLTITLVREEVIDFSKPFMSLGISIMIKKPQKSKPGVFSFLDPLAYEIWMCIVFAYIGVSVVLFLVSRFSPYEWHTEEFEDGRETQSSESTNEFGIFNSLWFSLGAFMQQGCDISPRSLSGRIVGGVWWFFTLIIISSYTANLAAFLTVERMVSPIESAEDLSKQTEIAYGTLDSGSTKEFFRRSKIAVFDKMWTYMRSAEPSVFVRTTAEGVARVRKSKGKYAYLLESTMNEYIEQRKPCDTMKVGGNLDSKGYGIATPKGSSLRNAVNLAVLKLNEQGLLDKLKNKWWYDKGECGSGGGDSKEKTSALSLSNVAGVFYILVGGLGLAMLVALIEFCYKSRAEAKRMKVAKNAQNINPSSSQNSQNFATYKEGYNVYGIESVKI
Sequence of Glutamate receptor 1 (Rattus norvegicus, UniProt P19490) (P19490 whole entry): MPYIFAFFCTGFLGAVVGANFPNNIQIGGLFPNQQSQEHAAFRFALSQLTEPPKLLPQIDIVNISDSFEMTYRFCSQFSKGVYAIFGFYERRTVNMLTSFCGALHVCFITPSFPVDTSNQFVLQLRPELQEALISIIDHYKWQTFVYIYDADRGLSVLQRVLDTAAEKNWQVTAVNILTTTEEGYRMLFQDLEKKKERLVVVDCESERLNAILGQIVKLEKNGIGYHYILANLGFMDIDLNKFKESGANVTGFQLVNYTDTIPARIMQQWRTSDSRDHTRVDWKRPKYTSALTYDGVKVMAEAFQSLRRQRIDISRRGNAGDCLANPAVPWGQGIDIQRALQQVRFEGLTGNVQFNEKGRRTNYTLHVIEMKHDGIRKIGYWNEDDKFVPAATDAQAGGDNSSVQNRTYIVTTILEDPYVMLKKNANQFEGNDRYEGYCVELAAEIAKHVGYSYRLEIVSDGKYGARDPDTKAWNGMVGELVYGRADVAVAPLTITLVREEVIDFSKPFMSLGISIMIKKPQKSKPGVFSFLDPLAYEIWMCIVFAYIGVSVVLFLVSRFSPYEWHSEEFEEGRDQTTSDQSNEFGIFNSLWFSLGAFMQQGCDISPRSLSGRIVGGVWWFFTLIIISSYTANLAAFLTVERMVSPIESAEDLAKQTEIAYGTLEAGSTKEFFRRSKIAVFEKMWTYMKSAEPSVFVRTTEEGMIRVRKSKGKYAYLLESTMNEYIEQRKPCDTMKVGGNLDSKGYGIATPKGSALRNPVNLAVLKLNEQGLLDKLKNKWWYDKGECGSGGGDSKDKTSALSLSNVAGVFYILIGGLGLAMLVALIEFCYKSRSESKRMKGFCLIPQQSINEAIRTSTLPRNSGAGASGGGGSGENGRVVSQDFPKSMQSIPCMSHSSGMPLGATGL
Sequence of Glutamate receptor ionotropic, kainate 3 (P42264 whole entry): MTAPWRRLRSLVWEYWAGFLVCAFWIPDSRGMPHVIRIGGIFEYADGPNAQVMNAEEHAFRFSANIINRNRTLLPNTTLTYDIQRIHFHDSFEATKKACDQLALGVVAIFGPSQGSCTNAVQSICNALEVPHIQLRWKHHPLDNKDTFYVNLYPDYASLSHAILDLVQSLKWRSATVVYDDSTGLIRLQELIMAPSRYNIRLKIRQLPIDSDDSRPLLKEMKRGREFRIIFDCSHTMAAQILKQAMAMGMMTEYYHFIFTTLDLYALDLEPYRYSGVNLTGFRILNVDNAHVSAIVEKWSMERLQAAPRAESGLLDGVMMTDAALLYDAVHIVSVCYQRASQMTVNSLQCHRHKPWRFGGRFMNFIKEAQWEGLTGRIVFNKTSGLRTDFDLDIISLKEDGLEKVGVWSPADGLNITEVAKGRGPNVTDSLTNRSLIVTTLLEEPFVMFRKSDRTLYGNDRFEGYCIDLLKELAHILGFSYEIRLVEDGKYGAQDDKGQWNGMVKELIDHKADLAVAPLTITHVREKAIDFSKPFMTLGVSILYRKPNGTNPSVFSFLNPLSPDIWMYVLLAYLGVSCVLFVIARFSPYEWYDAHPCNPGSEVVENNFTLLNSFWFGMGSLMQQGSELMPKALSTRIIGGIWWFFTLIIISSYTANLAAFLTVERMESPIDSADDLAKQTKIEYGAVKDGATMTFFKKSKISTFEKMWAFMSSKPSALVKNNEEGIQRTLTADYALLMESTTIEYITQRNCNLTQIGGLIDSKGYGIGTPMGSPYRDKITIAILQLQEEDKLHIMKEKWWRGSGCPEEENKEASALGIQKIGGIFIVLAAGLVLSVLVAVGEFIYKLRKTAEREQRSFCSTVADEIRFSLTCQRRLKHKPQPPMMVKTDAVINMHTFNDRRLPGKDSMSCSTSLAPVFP

On to `Cc1nn(C[C@H](N)C(=O)O)c(=O)[nH]c1=O`, for which the Ki at Glutamate receptor 2 amounted to 372 nM; on Glutamate receptor 1 [1], 240 nM; on Glutamate receptor 4, 89 nM.

Regarding `N[C@@H](Cn1cc([N+](=O)[O-])c(=O)[nH]c1=O)C(=O)O`, the inhibitory constant (Ki) was found to be 279 nM at Glutamate receptor 1 [1] and 207 nM on Glutamate receptor 4.

As for `N[C@@H](Cn1cc(Cl)c(=O)[nH]c1=O)C(=O)O`, the inhibition constant Ki stood at 65 nM at Glutamate receptor 1 [1] and 451 nM at Glutamate receptor 4.

For `N[C@@H](Cn1nc(I)c(=O)[nH]c1=O)C(=O)O`, the inhibition constant (Ki) was found to be 101 nM on Glutamate receptor 2, 73.9 nM at Glutamate receptor 1 [1] and 19.9 nM on Glutamate receptor 4.

With `N[C@@H](Cn1cc(I)c(=O)[nH]c1=O)C(=O)O`, the EC50 is 19200 nM at Glutamate receptor 1 [2] and 140 nM in assay [3]. In addition, the Ki at Glutamate receptor 1 [1] amounted to 163 nM; at Glutamate receptor 4, 972 nM.

On to `N[C@@H](Cn1ncc(=O)[nH]c1=O)C(=O)O`, for which the inhibition constant Ki is 461 nM on Glutamate receptor 2, 163 nM on Glutamate receptor 1 [1] and 189 nM at Glutamate receptor 4.

`N[C@@H](Cn1cc(F)c(=O)[nH]c1=O)C(=O)O`: the inhibitory constant (Ki) on Glutamate receptor 1 [1] worked out at 14.7 nM; on Glutamate receptor 4, 305 nM.

Consider `N[C@@H](Cn1nc(Br)c(=O)[nH]c1=O)C(=O)O`, for which the inhibition constant Ki on Glutamate receptor 2 stood at 19.3 nM; on Glutamate receptor 1 [1], 29 nM; on Glutamate receptor 4, 7.9 nM.

Consider `N[C@@H](Cn1nc(Cl)c(=O)[nH]c1=O)C(=O)O`, for which the Ki at Glutamate receptor 2 came out at 16.7 nM; at Glutamate receptor 1 [1], 7.1 nM; on Glutamate receptor 4 it was 3.6 nM.

As to `N[C@@H](Cn1cc(Br)c(=O)[nH]c1=O)C(=O)O`, the Ki on Glutamate receptor 1 [1] was found to be 92 nM; on Glutamate receptor 4, 457 nM.

Take `N[C@@H](Cn1ccc(=O)[nH]c1=O)C(=O)O` [(S)-WILLARDIINE]: the values for the inhibitory constant (Ki) on Glutamate receptor 1 [1] and on Glutamate receptor 4 were 386 nM and 8850 nM, respectively.
